Reference: patent publication US20230263825A1, “ANTI-CANCER ACTIVITY OF PERBORATE SALTS” (priority 2020, published 2023)

Test: Toxicology in rats, oral, histopathology
Type: in vivo
Conditions: rat, in vivo, po
Text: After 32 days, the rats were sacrificed and their organs were examined under a microscope.

O.O.O.O.[Na+].[O-]B1OO1 [sodium perborate tetrahydrate]
10/10: HEART Within normal limits, No Exam (0.125 mg/kg) | INTESTINE, Large Within normal limits, No Exam (0.125 mg/kg) | INTESTINE, Small Within normal limits, No Exam (0.125 mg/kg) | KIDNEY Within normal limits, No Exam (0.125 mg/kg) | LIVER Within normal limits, No Exam (0.125 mg/kg) | LUNG Within normal limits, No Exam (0.125 mg/kg) | PANCREAS Within normal limits, No Exam (0.125 mg/kg) | SPLEEN Within normal limits, No Exam (0.125 mg/kg) | STOMACH Within normal limits, No Exam (0.125 mg/kg) | HEART Within normal limits, No Exam (0.25 mg/kg) | INTESTINE, Large Within normal limits, No Exam (0.25 mg/kg) | INTESTINE, Small Within normal limits, No Exam (0.25 mg/kg) | KIDNEY Within normal limits, No Exam (0.25 mg/kg) | LIVER Within normal limits, No Exam (0.25 mg/kg) | LUNG Within normal limits, No Exam (0.25 mg/kg) | PANCREAS Within normal limits, No Exam (0.25 mg/kg) | SPLEEN Within normal limits, No Exam (0.25 mg/kg) | STOMACH Within normal limits, No Exam (0.25 mg/kg) | HEART Within normal limits, No Exam (0.5 mg/kg) | INTESTINE, Large Within normal limits, No Exam (0.5 mg/kg) | INTESTINE, Small Within normal limits, No Exam (0.5 mg/kg) | KIDNEY Within normal limits, No Exam (0.5 mg/kg) | LIVER Within normal limits, No Exam (0.5 mg/kg) | LUNG Within normal limits, No Exam (0.5 mg/kg) | PANCREAS Within normal limits, No Exam (0.5 mg/kg) | SPLEEN Within normal limits, No Exam (0.5 mg/kg) | STOMACH Within normal limits, No Exam (0.5 mg/kg) | HEART Within normal limits, No Exam (1 mg/kg) | INTESTINE, Large Within normal limits, No Exam (1 mg/kg) | INTESTINE, Small Within normal limits, No Exam (1 mg/kg) | KIDNEY Within normal limits, No Exam (1 mg/kg)
0%: HEART Notable or abnormal, % (0.125 mg/kg) | INTESTINE, Large Notable or abnormal, % (0.125 mg/kg) | INTESTINE, Small Notable or abnormal, % (0.125 mg/kg) | KIDNEY Edema, % (0.125 mg/kg) | KIDNEY Notable or abnormal, % (0.125 mg/kg) | LIVER Fattening, % (0.125 mg/kg) | LIVER Infiltration, % (0.125 mg/kg) | LIVER Notable or abnormal, % (0.125 mg/kg) | LUNG Lymphocytic infiltration, % (0.125 mg/kg) | LUNG Notable or abnormal, % (0.125 mg/kg) | LUNG Pulmonary edema, % (0.125 mg/kg) | PANCREAS Notable or abnormal, % (0.125 mg/kg) | SPLEEN Notable or abnormal, % (0.125 mg/kg) | STOMACH Notable or abnormal, % (0.125 mg/kg) | HEART Notable or abnormal, % (0.25 mg/kg) | INTESTINE, Large Notable or abnormal, % (0.25 mg/kg) | INTESTINE, Small Notable or abnormal, % (0.25 mg/kg) | KIDNEY Edema, % (0.25 mg/kg) | KIDNEY Notable or abnormal, % (0.25 mg/kg) | LIVER Fattening, % (0.25 mg/kg) | LIVER Infiltration, % (0.25 mg/kg) | LIVER Notable or abnormal, % (0.25 mg/kg) | LUNG Lymphocytic infiltration, % (0.25 mg/kg) | LUNG Notable or abnormal, % (0.25 mg/kg) | LUNG Pulmonary edema, % (0.25 mg/kg) | PANCREAS Notable or abnormal, % (0.25 mg/kg) | SPLEEN Notable or abnormal, % (0.25 mg/kg) | STOMACH Notable or abnormal, % (0.25 mg/kg) | HEART Notable or abnormal, % (0.5 mg/kg) | INTESTINE, Large Notable or abnormal, % (0.5 mg/kg) | INTESTINE, Small Notable or abnormal, % (0.5 mg/kg) | KIDNEY Edema, % (0.5 mg/kg) | KIDNEY Notable or abnormal, % (0.5 mg/kg) | LIVER Fattening, % (0.5 mg/kg) | LIVER Infiltration, % (0.5 mg/kg) | LIVER Notable or abnormal, % (0.5 mg/kg) | LUNG Lymphocytic infiltration, % (0.5 mg/kg) | LUNG Notable or abnormal, % (0.5 mg/kg) | LUNG Pulmonary edema, % (0.5 mg/kg) | PANCREAS Notable or abnormal, % (0.5 mg/kg) | SPLEEN Notable or abnormal, % (0.5 mg/kg) | STOMACH Notable or abnormal, % (0.5 mg/kg) | HEART Notable or abnormal, % (1 mg/kg) | INTESTINE, Large Notable or abnormal, % (1 mg/kg) | INTESTINE, Small Notable or abnormal, % (1 mg/kg) | KIDNEY Edema, % (1 mg/kg) | KIDNEY Notable or abnormal, % (1 mg/kg) | LIVER Fattening, % (1 mg/kg) | LIVER Infiltration, % (1 mg/kg) | LIVER Notable or abnormal, % (1 mg/kg)
0/10: HEART Notable or abnormal, No Exam (0.125 mg/kg) | INTESTINE, Large Notable or abnormal, No Exam (0.125 mg/kg) | INTESTINE, Small Notable or abnormal, No Exam (0.125 mg/kg) | KIDNEY Edema, No Exam (0.125 mg/kg) | KIDNEY Notable or abnormal, No Exam (0.125 mg/kg) | LIVER Fattening, No Exam (0.125 mg/kg) | LIVER Infiltration, No Exam (0.125 mg/kg) | LIVER Notable or abnormal, No Exam (0.125 mg/kg) | LUNG Lymphocytic infiltration, No Exam (0.125 mg/kg) | LUNG Notable or abnormal, No Exam (0.125 mg/kg) | LUNG Pulmonary edema, No Exam (0.125 mg/kg) | PANCREAS Notable or abnormal, No Exam (0.125 mg/kg) | SPLEEN Notable or abnormal, No Exam (0.125 mg/kg) | STOMACH Notable or abnormal, No Exam (0.125 mg/kg) | HEART Notable or abnormal, No Exam (0.25 mg/kg) | INTESTINE, Large Notable or abnormal, No Exam (0.25 mg/kg) | INTESTINE, Small Notable or abnormal, No Exam (0.25 mg/kg) | KIDNEY Edema, No Exam (0.25 mg/kg) | KIDNEY Notable or abnormal, No Exam (0.25 mg/kg) | LIVER Fattening, No Exam (0.25 mg/kg) | LIVER Infiltration, No Exam (0.25 mg/kg) | LIVER Notable or abnormal, No Exam (0.25 mg/kg) | LUNG Lymphocytic infiltration, No Exam (0.25 mg/kg) | LUNG Notable or abnormal, No Exam (0.25 mg/kg) | LUNG Pulmonary edema, No Exam (0.25 mg/kg) | PANCREAS Notable or abnormal, No Exam (0.25 mg/kg) | SPLEEN Notable or abnormal, No Exam (0.25 mg/kg) | STOMACH Notable or abnormal, No Exam (0.25 mg/kg) | HEART Notable or abnormal, No Exam (0.5 mg/kg) | INTESTINE, Large Notable or abnormal, No Exam (0.5 mg/kg) | INTESTINE, Small Notable or abnormal, No Exam (0.5 mg/kg) | KIDNEY Edema, No Exam (0.5 mg/kg) | KIDNEY Notable or abnormal, No Exam (0.5 mg/kg) | LIVER Fattening, No Exam (0.5 mg/kg) | LIVER Infiltration, No Exam (0.5 mg/kg) | LIVER Notable or abnormal, No Exam (0.5 mg/kg) | LUNG Lymphocytic infiltration, No Exam (0.5 mg/kg) | LUNG Notable or abnormal, No Exam (0.5 mg/kg) | LUNG Pulmonary edema, No Exam (0.5 mg/kg) | PANCREAS Notable or abnormal, No Exam (0.5 mg/kg) | SPLEEN Notable or abnormal, No Exam (0.5 mg/kg) | STOMACH Notable or abnormal, No Exam (0.5 mg/kg) | HEART Notable or abnormal, No Exam (1 mg/kg) | INTESTINE, Large Notable or abnormal, No Exam (1 mg/kg) | INTESTINE, Small Notable or abnormal, No Exam (1 mg/kg) | KIDNEY Edema, No Exam (1 mg/kg) | KIDNEY Notable or abnormal, No Exam (1 mg/kg) | LIVER Fattening, No Exam (1 mg/kg) | LIVER Infiltration, No Exam (1 mg/kg) | LIVER Notable or abnormal, No Exam (1 mg/kg)
100%: HEART Within normal limits, % (0.125 mg/kg) | INTESTINE, Large Within normal limits, % (0.125 mg/kg) | INTESTINE, Small Within normal limits, % (0.125 mg/kg) | KIDNEY Within normal limits, % (0.125 mg/kg) | LIVER Within normal limits, % (0.125 mg/kg) | LUNG Within normal limits, % (0.125 mg/kg) | PANCREAS Within normal limits, % (0.125 mg/kg) | SPLEEN Within normal limits, % (0.125 mg/kg) | STOMACH Within normal limits, % (0.125 mg/kg) | HEART Within normal limits, % (0.25 mg/kg) | INTESTINE, Large Within normal limits, % (0.25 mg/kg) | INTESTINE, Small Within normal limits, % (0.25 mg/kg) | KIDNEY Within normal limits, % (0.25 mg/kg) | LIVER Within normal limits, % (0.25 mg/kg) | LUNG Within normal limits, % (0.25 mg/kg) | PANCREAS Within normal limits, % (0.25 mg/kg) | SPLEEN Within normal limits, % (0.25 mg/kg) | STOMACH Within normal limits, % (0.25 mg/kg) | HEART Within normal limits, % (0.5 mg/kg) | INTESTINE, Large Within normal limits, % (0.5 mg/kg) | INTESTINE, Small Within normal limits, % (0.5 mg/kg) | KIDNEY Within normal limits, % (0.5 mg/kg) | LIVER Within normal limits, % (0.5 mg/kg) | LUNG Within normal limits, % (0.5 mg/kg) | PANCREAS Within normal limits, % (0.5 mg/kg) | SPLEEN Within normal limits, % (0.5 mg/kg) | STOMACH Within normal limits, % (0.5 mg/kg) | HEART Within normal limits, % (1 mg/kg) | INTESTINE, Large Within normal limits, % (1 mg/kg) | INTESTINE, Small Within normal limits, % (1 mg/kg) | KIDNEY Within normal limits, % (1 mg/kg)
